{
  "source": "patent US7553506B2",
  "about": "“Herbal compositions for prevention and treatment of rheumatic and inflammatory diseases and method of preparing the same” (Shenzhen Qianrenren Sci. & Tech. Development Co., priority 2004, dated 2009)",
  "key": {"rheumatoid arthritis": {"test_system": "rheumatoid arthritis", "conditions": "general statement on RA therapy; cited from earlier work"}, "[1]": {"test_system": "Outpatients with active rheumatoid arthritis", "experiment": "Clinical study of Anti-Rheumatoid Arthritis Liquor (ARL) versus active control (MTX combination)", "assay_type": "in vivo, human", "conditions": "for number of patients with 50% improvement (R50) / number of patients with 75% improvement (R75) / number of patients with 100% improvement (R100) / % of patients with 50% improvement (R50) / % of patients with 75% improvement (R75) / % of patients with 100% improvement (R100): 20 patients per group", "procedure": "Outpatients with active rheumatoid arthritis, according to the classification criteria of the American Arthritis College, without other significant medical conditions were recruited. 40 patients were recruited, 7 male and 33 female. Their ages were ranged from 28-67 years old with average of 46.8 years old. The disease duration of the patients ranged from 0.4 to 13 years.\n[…] Observe group, 20 patients, was treated with ARL (30 ml/d). It was taken before sleep or equally divided to be taken in the morning and evening.\nThe outcome measurements for the both groups were divided to signs and symptoms, including: rest pain assessment, duration of morning stiffness, number of tender joint and the index of tenderness, number of swelling joints and the swelling index, grip strength, joint function, erythrocyte sedimentation rate, C reaction protein, and rheumatoid factor. The individual parameter improvement was calculated through the following formula:\nThe total improvement was used to compare the efficacy between the two groups. In order to accurately reflect the drug efficacy, 50% improvement, 75% improvement, and 100% improvement (R50, R75 and R100) were used as statistical endpoint for efficacy."}, "[2]": {"test_system": "Outpatients with active rheumatoid arthritis", "experiment": "Clinical study of Anti-Rheumatoid Arthritis Capsule (ARC) versus active control (MTX combination)", "conditions": "for % of patients with 50% improvement (R50) / number of patients with 50% improvement (R50) / number of patients with 75% improvement (R75) / number of patients with 100% improvement (R100) / % of patients with 75% improvement (R75): 18 patients per group", "procedure": "Anti-Rheumatoid Arthritis Capsule (ARC) is a capsule made of the powder form of the herbal composition of the present invention in accordance with the components and method shown in Example 1. To assess the basic efficacy and side effect of ARC, an open, randomized and active controlled clinical trial was carried out.\nOutpatients with active rheumatoid arthritis, according to the classification criteria of the American Arthritis College, without other significant medical conditions were recruited. […] Safety and compliance were monitored every 2 weeks with complete outcome evaluation at 4, 8, and 12 weeks.\nThirty-six (36) typical active RA patients were selected and randomly divided into two groups. Observe group, 18 patients, was treated with ARC (4 capsules t.i.d., each capsule is about 0.3 g).\nThe improvement was denoted as either R50, R75 or R100 reflecting either an improvement to the 50%, 75%, or 100% level in the parameters based on the improvements of signs and symptoms including rest pain assessment, duration of morning stiffness, number of tender joint and the index of tenderness, number of swelling joints and the swelling index, grip strength, joint function, erythrocyte sedimentation rate, C reaction protein, and rheumatoid factor."}, "[3]": {"conditions": "26 weeks, listed as combination of oral MTX and NSAID"}, "[4]": {"conditions": "52 weeks, listed as combination of oral MTX and NSAID"}, "[5]": {"conditions": "12 weeks, listed as active control"}},
  "data": [
    {"smiles": "CN(Cc1cnc2nc(N)nc(N)c2n1)c1ccc(C(=O)N[C@@H](CCC(=O)O)C(=O)O)cc1", "note": "[MTX, Methotrexate]", "values": [
      {"measurement": "time usually required to show some clinical effect", "setting": "rheumatoid arthritis", "result": "12-24 weeks"},
      {"measurement": "time required to reach R50", "setting": "[1]", "result": "8-12 weeks"},
      {"measurement": "time required to reach R75", "setting": "[1]", "result": "20-32 weeks"},
      {"measurement": "time required to reach R100", "setting": "[1]", "result": 52, "unit": "weeks"},
      {"measurement": "number of patients with 50% improvement (R50)", "setting": "[1]; 4 weeks", "result": 0},
      {"measurement": "number of patients with 75% improvement (R75)", "setting": "[1]; 4 weeks", "result": 0},
      {"measurement": "number of patients with 100% improvement (R100)", "setting": "[1]; 4 weeks", "result": 0},
      {"measurement": "number of patients with 50% improvement (R50)", "setting": "[1]; 8 weeks", "result": 0},
      {"measurement": "number of patients with 75% improvement (R75)", "setting": "[1]; 8 weeks", "result": 0},
      {"measurement": "number of patients with 100% improvement (R100)", "setting": "[1]; 8 weeks", "result": 0},
      {"measurement": "% of patients with 50% improvement (R50)", "setting": "[1]; 12 weeks", "result": "(45) %"},
      {"measurement": "number of patients with 50% improvement (R50)", "setting": "[1]; 12 weeks", "result": 9},
      {"measurement": "number of patients with 75% improvement (R75)", "setting": "[1]; 12 weeks", "result": 0},
      {"measurement": "number of patients with 100% improvement (R100)", "setting": "[1]; 12 weeks", "result": 0},
      {"measurement": "% of patients with 50% improvement (R50)", "setting": "[1]; 12 weeks, listed as combination of oral MTX and NSAID", "result": 45, "unit": "%"},
      {"measurement": "% of patients with 50% improvement (R50)", "setting": "[1]; 26 weeks", "result": "(40) %"},
      {"measurement": "% of patients with 75% improvement (R75)", "setting": "[1]; 26 weeks", "result": "(50) %"},
      {"measurement": "number of patients with 50% improvement (R50)", "setting": "[1]; 26 weeks", "result": 8},
      {"measurement": "number of patients with 75% improvement (R75)", "setting": "[1]; 26 weeks", "result": 10},
      {"measurement": "number of patients with 100% improvement (R100)", "setting": "[1]; 26 weeks", "result": 0},
      {"measurement": "% of patients with 50% improvement (R50)", "setting": "[1]; [3]", "result": 40, "unit": "%"},
      {"measurement": "% of patients with 75% improvement (R75)", "setting": "[1]; [3]", "result": 50, "unit": "%"},
      {"measurement": "% of patients with 75% improvement (R75)", "setting": "[1]; 52 weeks", "result": "(75) %"},
      {"measurement": "% of patients with 100% improvement (R100)", "setting": "[1]; 52 weeks", "result": "(25) %"},
      {"measurement": "number of patients with 50% improvement (R50)", "setting": "[1]; 52 weeks", "result": 0},
      {"measurement": "number of patients with 75% improvement (R75)", "setting": "[1]; 52 weeks", "result": 15},
      {"measurement": "number of patients with 100% improvement (R100)", "setting": "[1]; 52 weeks", "result": 5},
      {"measurement": "% of patients with 75% improvement (R75)", "setting": "[1]; [4]", "result": 75, "unit": "%"},
      {"measurement": "% of patients with 100% improvement (R100)", "setting": "[1]; [4]", "result": 25, "unit": "%"},
      {"measurement": "Time Required for Improvement, R50", "setting": "[1]; Table 5, value ± spread", "result": "15.2 ± 5.43", "unit": "week"},
      {"measurement": "Time Required for Improvement, R75", "setting": "[1]; Table 5, value ± spread", "result": "27.7 ± 10.5", "unit": "week"},
      {"measurement": "Time Required for Improvement, R100", "setting": "[1]; Table 5, value ± spread", "result": "47.2 ± 10.7", "unit": "week"},
      {"measurement": "% of patients with 50% improvement (R50)", "setting": "[2]; 4 weeks", "result": "(11.1) %"},
      {"measurement": "number of patients with 50% improvement (R50)", "setting": "[2]; 4 weeks", "result": 2},
      {"measurement": "number of patients with 75% improvement (R75)", "setting": "[2]; 4 weeks", "result": 0},
      {"measurement": "number of patients with 100% improvement (R100)", "setting": "[2]; 4 weeks", "result": 0},
      {"measurement": "% of patients with 50% improvement (R50)", "setting": "[2]; 4 weeks, listed as active control", "result": 11.1, "unit": "%"},
      {"measurement": "% of patients with 50% improvement (R50)", "setting": "[2]; 8 weeks", "result": "(11.1) %"},
      {"measurement": "number of patients with 50% improvement (R50)", "setting": "[2]; 8 weeks", "result": 2},
      {"measurement": "number of patients with 75% improvement (R75)", "setting": "[2]; 8 weeks", "result": 0},
      {"measurement": "number of patients with 100% improvement (R100)", "setting": "[2]; 8 weeks", "result": 0},
      {"measurement": "% of patients with 50% improvement (R50)", "setting": "[2]; 8 weeks, listed as active control", "result": 11.1, "unit": "%"},
      {"measurement": "patients who complained about stomachalgia", "setting": "[2]; 12 weeks observation, 18 patients", "result": 3, "unit": "patients"},
      {"measurement": "% of patients with 50% improvement (R50)", "setting": "[2]; 12 weeks", "result": "(55.5) %"},
      {"measurement": "% of patients with 75% improvement (R75)", "setting": "[2]; 12 weeks", "result": "(11.1) %"},
      {"measurement": "number of patients with 50% improvement (R50)", "setting": "[2]; 12 weeks", "result": 10},
      {"measurement": "number of patients with 75% improvement (R75)", "setting": "[2]; 12 weeks", "result": 2},
      {"measurement": "% of patients with 50% improvement (R50)", "setting": "[2]; [5]", "result": 55.5, "unit": "%"},
      {"measurement": "% of patients with 75% improvement (R75)", "setting": "[2]; [5]", "result": 11.1, "unit": "%"}
    ]}
  ]
}
